Assay [1] relates to Tyrosine-protein kinase ABL1 (Homo sapiens), P00519 [E255K]. The assay can be described thus: Binding affinity to human phosphorylated ABL1 E255K mutant (S229 to K512 residues) expressed in mammalian expression system assessed as residual binding level at 10 uM by Kinomescan method relative to control.
Assay [2] addresses Tyrosine-protein kinase ABL1 (Homo sapiens) (UniProt P00519). Put plainly: Binding affinity to wild-type human non-phosphorylated ABL1 (S229 to K512 residues) expressed in mammalian expression system assessed as residual binding level at 10 uM by Kinomescan method relative to control.
Assay [3] relates to ALK tyrosine kinase receptor (Homo sapiens), Q9UM73 [L1196M]. The assay can be described thus: Binding affinity to […] human partial length ALK L1196M mutant (I1088 to E1409 residues) expressed in mammalian expression system assessed as residual binding level at 10 uM by Kinomescan method relative to control.
Assay [4] addresses Ankyrin repeat and protein kinase domain-containing protein 1 (Homo sapiens) (UniProt Q8NFD2). The assay can be described thus: Binding affinity to wild-type human partial length ANKK1 (M1 to A305 residues) expressed in mammalian expression system assessed as residual binding level at 10 uM by Kinomescan method relative to control.
In assay [5] the target is NUAK family SNF1-like kinase 1 (Homo sapiens) (UniProt O60285). Put plainly: Binding affinity to wild-type human partial length ARK5 (E25 to I332 residues) expressed in bacterial expression system assessed as residual binding level at 10 uM by Kinomescan method relative to control.
Assay [6] deals with Aurora kinase A (Homo sapiens) (UniProt O14965). The assay can be described thus: Binding affinity to wild-type human partial length AURKA (E122 to K401 residues) expressed in mammalian expression system assessed as residual binding level at 10 uM by Kinomescan method relative to control.
In assay [7] the target is Calcium/calmodulin-dependent protein kinase type II subunit beta (Homo sapiens) (UniProt Q13554). Put plainly: Binding affinity to wild-type human partial length CAMK2B (M1 to Q380 residues) expressed in bacterial expression system assessed as residual binding level at 10 uM by Kinomescan method relative to control.
Assay [8] deals with Cyclin-dependent kinase 11B (Homo sapiens) (UniProt P21127). Put plainly: Binding affinity to wild-type human partial length CDC2L1 (P353 to G692 residues) expressed in bacterial expression system assessed as residual binding level at 10 uM by Kinomescan method relative to control.
For assay [9], the target named is Cyclin-dependent kinase 9 (Homo sapiens) (UniProt P50750). Put plainly: Binding affinity to wild-type human full length CDK9 (M1 to F372 residues) expressed in bacterial expression system assessed as residual binding level at 10 uM by Kinomescan method relative to control.
Assay [10] addresses Casein kinase I isoform gamma-2 (Homo sapiens) (UniProt P78368). Put plainly: Binding affinity to wild-type human full length CSNK1G2 (M1 to K415 residues) expressed in bacterial expression system assessed as residual binding level at 10 uM by Kinomescan method relative to control.
Assay [11] addresses Dual specificity tyrosine-phosphorylation-regulated kinase 2 (Homo sapiens) (UniProt Q92630). The assay can be described thus: Binding affinity to wild-type human full length DYRK2 (M1 to S528 residues) expressed in mammalian expression system assessed as residual binding level at 10 uM by Kinomescan method relative to control.
Assay [12] has as its system Receptor-type tyrosine-protein kinase FLT3 (Homo sapiens), P36888 [D835H]. The assay can be described thus: Binding affinity to human partial length FLT3 D835H mutant (V592 to Y969 residues) expressed in bacterial expression system assessed as residual binding level at 10 uM by Kinomescan method relative to control.
The target of assay [13] is Tyrosine-protein kinase FRK (Homo sapiens) (UniProt P42685). The assay can be described thus: Binding affinity to wild-type human partial length FRK (A215 to F503 residues) expressed in bacterial expression system assessed as residual binding level at 10 uM by Kinomescan method relative to control.
For assay [14], the system named is Mast/stem cell growth factor receptor Kit (Homo sapiens), P10721 [UNDEFINED MUTATION]. The assay can be described thus: Binding affinity to human partial length KIT V559D/V654 double mutant (Y545 to D952 residues) expressed in bacterial expression system assessed as residual binding level at 10 uM by Kinomescan method relative to control.
For assay [15], the target named is MAP kinase-activated protein kinase 2 (Homo sapiens) (UniProt P49137). Put plainly: Binding affinity to wild-type human partial length MAPKAPK2 (V48 to D345 residues) expressed in bacterial expression system assessed as residual binding level at 10 uM by Kinomescan method relative to control.
Assay [16] deals with Microtubule-associated serine/threonine-protein kinase 1 (Homo sapiens) (UniProt Q9Y2H9). The assay can be described thus: Binding affinity to wild-type human partial length MAST1 (S346 to V730 residues) expressed in mammalian expression system assessed as residual binding level at 10 uM by Kinomescan method relative to control.
For assay [17], the system named is Hepatocyte growth factor receptor (Homo sapiens), P08581 [M1250T]. The assay can be described thus: Binding affinity to human partial length MET M1250T mutant (D1010 to S1367 residues) expressed in bacterial expression system assessed as residual binding level at 10 uM by Kinomescan method relative to control.
Assay [18] concerns the target Myosin light chain kinase family member 4 (Homo sapiens) (UniProt Q86YV6). The assay can be described thus: Binding affinity to wild-type human partial length MYLK4 (V79 to S380 residues) expressed in bacterial expression system assessed as residual binding level at 10 uM by Kinomescan method relative to control.
Assay [19] has as its target Phosphatidylinositol 4-phosphate 5-kinase type-1 gamma (Homo sapiens) (UniProt O60331). The assay can be described thus: Binding affinity to wild-type human partial length PIP5K1C (M1 to T668 residues) expressed in mammalian expression system assessed as residual binding level at 10 uM by Kinomescan method relative to control.
The subject of assay [20] is Proto-oncogene tyrosine-protein kinase receptor Ret (Homo sapiens), P07949 [M918T]. Put plainly: Binding affinity to human partial length RET M918T mutant (E713 to D1014 residues) expressed in bacterial expression system assessed as residual binding level at 10 uM by Kinomescan method relative to control.
The target of assay [21] is Serine/threonine-protein kinase RIO3 (Homo sapiens) (UniProt O14730). The assay can be described thus: Binding affinity to wild-type human full length RIOK3 (M1 to E519 residues) expressed in bacterial expression system assessed as residual binding level at 10 uM by Kinomescan method relative to control.
Assay [22] deals with Serine/threonine-protein kinase TBK1 (Homo sapiens) (UniProt Q9UHD2). Put plainly: Binding affinity to wild-type human full length TBK1 (M1 to L729 residues) expressed in mammalian expression system assessed as residual binding level at 10 uM by Kinomescan method relative to control.
Assay [23] has as its target Serine/threonine-protein kinase 25 (Homo sapiens) (UniProt O00506). Put plainly: Binding affinity to wild-type human partial length YSK1 (V14 to H295 residues) expressed in bacterial expression system assessed as residual binding level at 10 uM by Kinomescan method relative to control.
The subject of assay [24] is NIH3T3. Put plainly: Inhibition of erastin-induced ferroptosis in mouse NIH/3T3 cells after 24 hrs by WST-8 assay. In kind it is functional, cell-based. The following applies: NIH3T3, 24 h.

pIC50: −log10 of the molar value.

Serine/threonine-protein kinase TBK1 (Homo sapiens), sequence (Q9UHD2 whole entry, the tested form may be a part): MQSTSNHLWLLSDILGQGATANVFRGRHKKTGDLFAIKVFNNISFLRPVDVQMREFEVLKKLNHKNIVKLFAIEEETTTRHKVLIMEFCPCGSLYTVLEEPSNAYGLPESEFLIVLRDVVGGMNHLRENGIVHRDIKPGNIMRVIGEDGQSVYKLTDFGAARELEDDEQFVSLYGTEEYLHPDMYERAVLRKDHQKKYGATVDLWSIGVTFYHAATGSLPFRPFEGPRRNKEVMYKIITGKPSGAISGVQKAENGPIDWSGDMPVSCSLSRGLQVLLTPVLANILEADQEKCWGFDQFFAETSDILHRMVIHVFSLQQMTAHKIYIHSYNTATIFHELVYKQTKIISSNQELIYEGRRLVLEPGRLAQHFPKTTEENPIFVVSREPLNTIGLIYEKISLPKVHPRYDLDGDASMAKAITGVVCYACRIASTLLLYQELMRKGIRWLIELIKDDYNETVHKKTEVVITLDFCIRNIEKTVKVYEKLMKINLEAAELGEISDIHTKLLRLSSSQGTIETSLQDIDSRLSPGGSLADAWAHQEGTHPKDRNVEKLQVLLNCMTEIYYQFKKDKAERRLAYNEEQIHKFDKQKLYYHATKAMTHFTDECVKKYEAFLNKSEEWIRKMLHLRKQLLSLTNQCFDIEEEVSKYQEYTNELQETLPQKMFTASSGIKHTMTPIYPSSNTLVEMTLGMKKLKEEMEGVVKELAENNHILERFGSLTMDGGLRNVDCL
Cyclin-dependent kinase 9 (Homo sapiens), sequence (P50750 whole entry, the tested form may be a part, canonical isoform): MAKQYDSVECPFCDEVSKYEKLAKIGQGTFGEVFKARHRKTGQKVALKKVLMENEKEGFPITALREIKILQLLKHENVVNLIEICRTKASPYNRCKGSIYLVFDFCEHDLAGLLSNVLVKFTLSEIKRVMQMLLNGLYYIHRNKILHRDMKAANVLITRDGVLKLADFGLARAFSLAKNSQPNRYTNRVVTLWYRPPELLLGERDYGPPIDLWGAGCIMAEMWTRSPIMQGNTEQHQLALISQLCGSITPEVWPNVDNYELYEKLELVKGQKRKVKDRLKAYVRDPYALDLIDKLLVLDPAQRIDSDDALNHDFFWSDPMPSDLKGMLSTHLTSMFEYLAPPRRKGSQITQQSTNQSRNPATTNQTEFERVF
Cyclin-dependent kinase 11B (Homo sapiens), sequence (P21127 whole entry, the tested form may be a part): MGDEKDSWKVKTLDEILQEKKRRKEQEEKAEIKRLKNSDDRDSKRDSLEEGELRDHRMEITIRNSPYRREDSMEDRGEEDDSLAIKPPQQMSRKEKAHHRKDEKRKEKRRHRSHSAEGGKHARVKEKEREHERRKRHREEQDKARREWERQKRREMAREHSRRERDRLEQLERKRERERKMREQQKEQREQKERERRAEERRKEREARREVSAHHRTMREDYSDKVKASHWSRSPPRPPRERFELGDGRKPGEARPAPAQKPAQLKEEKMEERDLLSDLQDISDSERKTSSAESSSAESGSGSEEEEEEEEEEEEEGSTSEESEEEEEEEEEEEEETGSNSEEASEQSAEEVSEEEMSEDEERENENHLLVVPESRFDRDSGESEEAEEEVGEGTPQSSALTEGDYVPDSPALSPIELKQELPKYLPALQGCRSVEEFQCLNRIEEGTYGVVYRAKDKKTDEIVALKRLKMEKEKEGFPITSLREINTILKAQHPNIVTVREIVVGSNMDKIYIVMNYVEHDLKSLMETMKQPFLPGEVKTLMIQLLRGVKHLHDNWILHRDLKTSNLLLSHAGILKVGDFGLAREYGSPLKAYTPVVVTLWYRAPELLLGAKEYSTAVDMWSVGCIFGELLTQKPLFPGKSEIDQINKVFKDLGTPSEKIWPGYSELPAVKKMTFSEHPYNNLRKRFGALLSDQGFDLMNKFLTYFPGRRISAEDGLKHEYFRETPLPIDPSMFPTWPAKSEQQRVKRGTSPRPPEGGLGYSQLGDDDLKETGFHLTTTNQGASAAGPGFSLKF
Casein kinase I isoform gamma-2 (Homo sapiens), sequence (P78368 whole entry, looked up, the tested form may be a part, canonical isoform): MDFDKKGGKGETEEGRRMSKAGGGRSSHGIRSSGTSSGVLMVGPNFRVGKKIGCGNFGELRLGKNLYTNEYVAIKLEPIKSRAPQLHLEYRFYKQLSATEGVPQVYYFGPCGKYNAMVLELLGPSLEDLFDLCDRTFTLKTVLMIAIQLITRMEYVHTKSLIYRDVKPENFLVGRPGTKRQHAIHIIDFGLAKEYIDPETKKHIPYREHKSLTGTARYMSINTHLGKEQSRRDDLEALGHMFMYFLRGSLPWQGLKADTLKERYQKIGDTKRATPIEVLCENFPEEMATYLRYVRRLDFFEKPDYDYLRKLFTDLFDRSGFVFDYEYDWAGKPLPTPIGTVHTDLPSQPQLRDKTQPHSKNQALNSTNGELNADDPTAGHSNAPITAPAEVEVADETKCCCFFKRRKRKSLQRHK
NUAK family SNF1-like kinase 1 (Homo sapiens), sequence (O60285 whole entry, the tested form may be a part): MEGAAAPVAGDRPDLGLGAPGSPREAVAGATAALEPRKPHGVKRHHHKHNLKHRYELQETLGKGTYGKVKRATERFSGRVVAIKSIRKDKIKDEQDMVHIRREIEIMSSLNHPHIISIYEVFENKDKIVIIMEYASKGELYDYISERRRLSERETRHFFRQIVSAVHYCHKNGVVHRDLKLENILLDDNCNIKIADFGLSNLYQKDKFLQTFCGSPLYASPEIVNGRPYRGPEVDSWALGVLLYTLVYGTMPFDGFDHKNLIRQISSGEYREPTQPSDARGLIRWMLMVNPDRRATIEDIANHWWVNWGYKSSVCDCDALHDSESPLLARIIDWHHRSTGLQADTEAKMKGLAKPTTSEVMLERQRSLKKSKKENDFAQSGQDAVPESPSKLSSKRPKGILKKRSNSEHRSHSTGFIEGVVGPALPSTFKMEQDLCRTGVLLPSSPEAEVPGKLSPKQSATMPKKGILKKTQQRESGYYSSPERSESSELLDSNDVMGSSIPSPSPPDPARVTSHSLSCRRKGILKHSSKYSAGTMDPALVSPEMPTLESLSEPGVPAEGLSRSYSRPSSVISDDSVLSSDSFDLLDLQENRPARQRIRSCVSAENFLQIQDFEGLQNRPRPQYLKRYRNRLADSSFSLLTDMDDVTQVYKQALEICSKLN
Tyrosine-protein kinase ABL1 (Homo sapiens), sequence (P00519 whole entry, the tested form may be a part): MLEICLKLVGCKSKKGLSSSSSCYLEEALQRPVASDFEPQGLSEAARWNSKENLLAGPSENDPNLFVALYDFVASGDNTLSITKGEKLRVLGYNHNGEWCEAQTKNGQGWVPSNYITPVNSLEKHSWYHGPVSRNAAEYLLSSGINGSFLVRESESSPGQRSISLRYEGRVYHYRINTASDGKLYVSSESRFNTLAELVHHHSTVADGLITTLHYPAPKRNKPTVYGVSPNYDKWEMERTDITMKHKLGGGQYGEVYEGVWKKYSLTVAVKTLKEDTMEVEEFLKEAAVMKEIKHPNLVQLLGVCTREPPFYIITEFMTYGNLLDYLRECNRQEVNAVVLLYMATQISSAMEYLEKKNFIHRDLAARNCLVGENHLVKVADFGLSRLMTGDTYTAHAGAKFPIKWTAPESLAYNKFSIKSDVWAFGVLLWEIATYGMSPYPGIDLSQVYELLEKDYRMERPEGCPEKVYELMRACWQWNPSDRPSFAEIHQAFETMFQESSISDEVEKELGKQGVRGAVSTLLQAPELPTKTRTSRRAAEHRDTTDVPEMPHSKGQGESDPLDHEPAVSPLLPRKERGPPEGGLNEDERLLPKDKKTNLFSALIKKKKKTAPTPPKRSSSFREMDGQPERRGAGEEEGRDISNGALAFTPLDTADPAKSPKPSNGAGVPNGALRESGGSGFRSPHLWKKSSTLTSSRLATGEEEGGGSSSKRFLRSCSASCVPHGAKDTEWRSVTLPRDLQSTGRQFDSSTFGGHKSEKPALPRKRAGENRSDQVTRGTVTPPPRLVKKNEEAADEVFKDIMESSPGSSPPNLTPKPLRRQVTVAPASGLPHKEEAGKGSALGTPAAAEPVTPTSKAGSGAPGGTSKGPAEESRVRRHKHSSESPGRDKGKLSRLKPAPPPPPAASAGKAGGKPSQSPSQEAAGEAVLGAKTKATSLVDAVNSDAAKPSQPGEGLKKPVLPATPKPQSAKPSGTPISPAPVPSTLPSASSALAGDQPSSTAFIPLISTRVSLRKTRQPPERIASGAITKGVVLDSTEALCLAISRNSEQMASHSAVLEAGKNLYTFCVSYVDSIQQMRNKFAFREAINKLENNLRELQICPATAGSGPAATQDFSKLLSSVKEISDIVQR
Ankyrin repeat and protein kinase domain-containing protein 1 (Homo sapiens), sequence (Q8NFD2 whole entry, the tested form may be a part): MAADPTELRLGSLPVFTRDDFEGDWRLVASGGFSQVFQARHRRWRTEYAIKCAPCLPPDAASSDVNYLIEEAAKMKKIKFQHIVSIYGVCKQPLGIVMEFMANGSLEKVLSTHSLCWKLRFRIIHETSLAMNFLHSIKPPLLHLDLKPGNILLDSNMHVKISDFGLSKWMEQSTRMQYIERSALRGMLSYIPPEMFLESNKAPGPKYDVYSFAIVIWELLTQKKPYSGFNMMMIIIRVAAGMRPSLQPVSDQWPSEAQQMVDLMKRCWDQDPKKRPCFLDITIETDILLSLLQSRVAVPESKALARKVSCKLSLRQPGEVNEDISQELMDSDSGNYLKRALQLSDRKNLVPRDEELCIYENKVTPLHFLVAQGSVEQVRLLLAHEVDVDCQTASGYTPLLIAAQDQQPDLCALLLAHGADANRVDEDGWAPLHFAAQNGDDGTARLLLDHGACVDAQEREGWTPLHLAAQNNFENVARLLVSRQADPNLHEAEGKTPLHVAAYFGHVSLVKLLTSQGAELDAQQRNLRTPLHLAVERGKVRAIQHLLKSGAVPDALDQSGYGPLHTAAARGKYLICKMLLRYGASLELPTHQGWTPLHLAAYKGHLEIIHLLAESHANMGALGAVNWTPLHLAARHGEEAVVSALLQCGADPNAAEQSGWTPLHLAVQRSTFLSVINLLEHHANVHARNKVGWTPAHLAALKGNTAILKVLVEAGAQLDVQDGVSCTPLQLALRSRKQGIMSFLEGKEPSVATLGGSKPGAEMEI

In the case of `CC(C)N1C(=O)C(NCCCN(C)C)=C(c2cn(C)c3ccccc23)C1=O.Cl`, the Activity in [1] amounted to 89%; in assay [2] it was 84%; in assay [3] it was 90%; in assay [4], 90%; in assay [5] it was 94%; in assay [6], 90%. Further, the Activity came out at 100% in [7]; 96% in [8]; 100% in assay [9]; 91% in assay [10]; 87% in assay [11]; 88% in assay [12]. In addition, the Activity in assay [13] was 100%; in assay [14], 95%; in [15], 94%; in assay [16], 87%; in [17], 100%; in assay [18] it was 100%. The Activity in assay [19] was 96%; in [20], 86%; in assay [21], 100%; in assay [22] it was 73%; in [23], 94%. In addition, in assay [24], the pIC50 (commonly the IC50 on a negative log10 scale, so that one unit is a factor of ten) was 5.72.

Source of the values: ChEMBL document CHEMBL4304811, “Development of a Water-Soluble Indolylmaleimide Derivative IM-93 Showing Dual Inhibition of Ferroptosis and NETosis” (ACS Med Chem Lett, 2019).
